The record followed here is patent publication US8574563B2 (Bristol-Myers Squibb Company, priority 2006, dated 2013).

pEC50: −log10 of the molar value.

One assay relates to HCV 1b-377-neo replicon cells. The assay can be described thus: HCV replicon assay, HCV 1b-377-neo replicon cells (1b FRET). The assay is classed as cell-based, Hepatitis C virus genotype 1b. Particulars: HCV 1b-377-neo replicon cells; HCV 1b genotype. In a few lines:
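FRET-based replicon assay in HCV 1b-377-neo cells, including a comparison line carrying the NS5A Y2065H mutation that confers resistance to a reference compound.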
In the case of `COC(=O)N[C@H](C(=O)N1CCC[C@H]1c1ncc(-c2ccc(-c3ccc(-c4cnc([C@@H]5CCCN5C(=O)[C@@H](NC(=O)OC)C5CC5)[nH]4)cc3C(=O)O)cc2)[nH]1)C1CC1` [Example M116, 4,4′-bis(2-((2S)-1-((2S)-2-cyclopropyl-2-((methoxycarbonyl)amino)acetyl)-2-pyrrolidinyl)-1H-imidazol-5-yl)-2-biphenylcarboxylic acid], the “EC50 range against HCV 1b (Table 2, Range)” value is recorded as “>A”.
For the molecule `COC(=O)N[C@H](C(=O)N1CCC[C@H]1c1ncc(-c2ccc(-c3ccc(-c4cnc([C@@H]5CCCN5C(=O)[C@@H](NC(=O)OC)C(C)C)[nH]4)cc3C(=O)O)cc2)[nH]1)C(C)C` [Example M114, 4,4′-bis(2-((2S)-1-(N-(methoxycarbonyl)-L-valyl)-2-pyrrolidinyl)-1H-imidazol-5-yl)-2-biphenylcarboxylic acid], the “EC50 range against HCV 1b (Table 2, Range)” value is listed as “>A”.

Still in this assay, the particulars now being: HCV 1b-377-neo replicon cells; HCV 1b genotype; read-out: EC50 range against HCV 1b (Table 2, Range).
Broadly, the pEC50 is the EC50 on a negative log10 scale, so that one unit is a factor of ten. As for `COC(=O)N[C@@H](C(=O)N1CCC[C@H]1c1ncc(-c2ccc(-c3ccc(-c4cnc([C@@H]5CCCN5C(=O)c5ccncc5)[nH]4)cc3)cc2)[nH]1)c1ccccc1` [Example 69, methyl ((1R)-2-((2S)-2-(5-(4′-(2-((2S)-1-isonicotinoyl-2-pyrrolidinyl)-1H-imidazol-5-yl)-4-biphenylyl)-1H-imidaozl-2-yl)-1-pyrrolidinyl)-2-oxo-1-phenylethyl)carbamate], the negative-log EC50 (pEC50) was 9.00 to 12.00.

Staying with this assay, now noted: Hepatitis C virus, HCV 1b-377-neo replicon cells; HCV 1b genotype; read-out: EC50 range against HCV 1b (Table 2, Range).
Take `COC(=O)N[C@@H](C(=O)N1CSC[C@H]1c1ncc(-c2ccc(-c3ccc(-c4cnc([C@@H]5CSCN5C(=O)[C@H](NC(=O)OC)c5ccccc5)[nH]4)cc3)cc2)[nH]1)c1ccccc1` [Example 149, dimethyl (4,4′-biphenyldiylbis(1H-imidazole-5,2-diyl(4R)-1,3-thiazolidine-4,3-diyl((1R)-2-oxo-1-phenyl-2,1-ethanediyl)))biscarbamate]: the pEC50 is 9.00 to 12.00.
Take `COC(=O)N[C@H](C(=O)N1CCC[C@H]1c1ncc(-c2ccc(-c3ccc(-c4cnc([C@@H]5CCCN5C(=O)[C@@H](NC(=O)OC)C(C)C)[nH]4)cc3CO)cc2)[nH]1)C(C)C` [Example M119, methyl ((1S)-1-(((2S)-2-(5-(2-(hydroxymethyl)-4′-(2-((2S)-1-((2S)-2-((methoxycarbonyl)amino)-3-methylbutanoyl)-2-pyrrolidinyl)-1H-imidazol-5-yl)-4-biphenylyl)-1H-imidazol-2-yl)-1-pyrrolidinyl)carbonyl)-2-methylpropyl)carbamate]: the pEC50 was 6.00 to 7.00.
Regarding `CC(C)C(C(=O)N1CCC[C@H]1c1ncc(-c2ccc(-c3ccc(-c4cnc([C@@H]5CCCN5C(=O)C(C(C)C)N(C)Cc5ccccc5)[nH]4)cc3)cc2)[nH]1)N(C)Cc1ccccc1` (stereo partly drawn) [Example 24-4g, 1,1′-(4,4′-biphenyldiylbis(1H-imidazole-5,2-diyl(2S)-2,1-pyrrolidinediyl))bis(N-benzyl-N,3-dimethyl-1-oxo-2-butanamine)], the negative logarithm of the EC50 (pEC50) was 5.00 to 6.00.
`COC(=O)N[C@@H](Cc1c[nH]c2ccccc12)C(=O)N1CCC[C@H]1c1ncc(-c2ccc(-c3ccc(-c4cnc([C@@H]5CCCN5C(=O)[C@@H](NC(=O)OC)[C@@H](C)OC)[nH]4)cc3)cc2)[nH]1` [cj-100, methyl ((1S)-1-(1H-indol-3-ylmethyl)-2-((2S)-2-(5-(4′-(2-((2S)-1-((2S,3R)-3-methoxy-2-((methoxycarbonyl)amino)butanoyl)-2-pyrrolidinyl)-1H-imidazol-5-yl)-4-biphenylyl)-1H-imidazol-2-yl)-1-pyrrolidinyl)-2-oxoethyl)carbamate]: the pEC50 was 9.00 to 12.00.
Regarding `COC(=O)N[C@@H](Cc1cn(Cc2ccccc2)cn1)C(=O)N1CCC[C@H]1c1ncc(-c2ccc(-c3ccc(-c4cnc([C@@H]5CCCN5C(=O)[C@H](Cc5cn(Cc6ccccc6)cn5)NC(=O)OC)[nH]4)cc3)cc2)[nH]1` [cj-154, methyl ((1S)-2-((2S)-2-(5-(4′-(2-((2S)-1-((2S)-3-(1-benzyl-1H-imidazol-4-yl)-2-((methoxycarbonyl)amino)propanoyl)-2-pyrrolidinyl)-1H-imidazol-5-yl)-4-biphenylyl)-1H-imidazol-2-yl)-1-pyrrolidinyl)-1-((1-benzyl-1H-imidazol-4-yl)methyl)-2-oxoethyl)carbamate], the pEC50 is 9.00 to 12.00.
Turning to `CN[C@@H](CC(C)C)C(=O)N1CCC[C@H]1c1nc(-c2ccc(-c3ccc(-c4cnc([C@@H]5CCCN5C(=O)[C@H](CC(C)C)NC)[nH]4)cc3)cc2)c[nH]1` [Example F32, (2S)-N,4-dimethyl-1-((2S)-2-(4-(4′-(2-((2S)-1-((2S)-4-methyl-2-(methylamino)pentanoyl)-2-pyrrolidinyl)-1H-imidazol-5-yl)-4-biphenylyl)-1H-imidazol-2-yl)-1-pyrrolidinyl)-1-oxo-2-pentanamine], the pEC50 is 6.00 to 7.00.
As to `CCN(C)[C@@H](C(=O)N1CCC[C@H]1c1ncc(-c2ccc(-c3ccc(-c4cnc([C@@H]5CCCN5C(=O)[C@@H]5CCCO5)[nH]4)cc3)cc2)[nH]1)c1ccccc1` [Example 107, (1R)-N-ethyl-N-methyl-2-oxo-1-phenyl-2-((2S)-2-(5-(4′-(2-((2S)-1-((2S)-tetrahydro-2-furanylcarbonyl)-2-pyrrolidinyl)-1H-imidazol-5-yl)-4-biphenylyl)-1H-imidazol-2-yl)-1-pyrrolidinyl)ethanamine], the negative logarithm of the EC50 (pEC50) is 9.00 to 12.00.
As for `Cc1[nH]c([C@@H]2CCCN2C(=O)[C@@H](c2ccccc2)N(C)C)nc1-c1ccc(-c2ccc(-c3cnc([C@@H]4CCCN4C(=O)[C@@H](c4ccccc4)N(C)C)[nH]3)cc2)cc1` [Example E5, (1R)-2-((2S)-2-(4-(4′-(2-((2S)-1-((2R)-2-(dimethylamino)-2-phenylacetyl)-2-pyrrolidinyl)-1H-imidazol-4-yl)-4-biphenylyl)-5-methyl-1H-imidazol-2-yl)-1-pyrrolidinyl)-N,N-dimethyl-2-oxo-1-phenylethanamine], the negative-log EC50 (pEC50) was 9.00 to 12.00.
For the molecule `O=C([C@@H](c1ccccc1)N1CCCCC1)N1CCC[C@H]1c1ncc(-c2ccc(-c3ccc(-c4cnc([C@@H]5CCCN5C(=O)[C@@H](c5ccccc5)N5CCCCC5)[nH]4)cc3)cc2)[nH]1` [Example 24-1, 1,1′-(4,4′-biphenyldiylbis(1H-imidazole-5,2-diyl(2S)-2,1-pyrrolidinediyl((1R)-2-oxo-1-phenyl-2,1-ethanediyl)))dipiperidine], the negative logarithm of the EC50 (pEC50) was 9.00 to 12.00.
Same read-out and setting: the result for `CCCN(CCC)[C@H](C)C(=O)N1CCC[C@H]1c1ncc(-c2ccc(-c3ccc(-c4cnc([C@@H]5CCCN5C(=O)[C@@H](C)N(CCC)CCC)[nH]4)cc3)cc2)[nH]1` [Example M13, N,N′-(4,4′-biphenyldiylbis(1H-imidazole-5,2-diyl(2S)-2,1-pyrrolidinediyl((2R)-1-oxo-1,2-propanediyl)))bis(N-propyl-1-propanamine)] reads 6.00 to 7.00; that for `CN(C)[C@@H](C(=O)N1CCC[C@H]1c1ncc(-c2ccc(-c3ccc(-c4cnc([C@@H]5CCCN5C(=O)[C@H]5CCCO5)[nH]4)cc3)cc2)[nH]1)c1ccccc1` [Example 86, (1R)-N,N-dimethyl-2-oxo-1-phenyl-2-((2S)-2-(5-(4′-(2-((2S)-1-((2R)-tetrahydro-2-furanylcarbonyl)-2-pyrrolidinyl)-1H-imidazol-5-yl)-4-biphenylyl)-1H-imidazol-2-yl)-1-pyrrolidinyl)ethanamine], 9.00 to 12.00.
The same measure, in the same setting: the result for `COC(=O)N[C@@H](C(=O)N1CCC[C@H]1c1ncc(-c2ccc(-c3ccc(-c4cnc([C@@H]5CCCN5C(C)=O)[nH]4)cc3)cc2)[nH]1)c1ccccc1` [Example 31, methyl ((1R)-2-((2S)-2-(5-(4′-(2-((2S)-1-acetyl-2-pyrrolidinyl)-1H-imidazol-5-yl)-4-biphenylyl)-1H-imidazol-2-yl)-1-pyrrolidinyl)-2-oxo-1-phenylethyl)carbamate] reads 9.00 to 12.00; that for `COC(=O)N[C@](C)(C(=O)N1CCC[C@H]1c1nc(-c2ccc(-c3ccc(-c4cnc([C@@H]5CCCN5C(=O)[C@@](C)(NC(=O)OC)C(C)C)[nH]4)cc3)cc2)c[nH]1)C(C)C` [Example F37, methyl ((1S)-1-(((2S)-2-(4-(4′-(2-((2S)-1-((2S)-2-((methoxycarbonyl)amino)-2,3-dimethylbutanoyl)-2-pyrrolidinyl)-1H-imidazol-5-yl)-4-biphenylyl)-1H-imidazol-2-yl)-1-pyrrolidinyl)carbonyl)-1,2-dimethylpropyl)carbamate], 6.00 to 7.00; that for `COC(=O)N[C@@H](Cc1cn(Cc2ccccc2)cn1)C(=O)N1CCC[C@H]1c1ncc(-c2ccc(-c3ccc(-c4cnc([C@@H]5CCCN5C(=O)[C@@H](NC(=O)OC)[C@@H](C)OC)[nH]4)cc3)cc2)[nH]1` [cj-75, methyl ((1S)-1-((1-benzyl-1H-imidazol-4-yl)methyl)-2-((2S)-2-(5-(4′-(2-((2S)-1-((2S,3R)-3-methoxy-2-((methoxycarbonyl)amino)butanoyl)-2-pyrrolidinyl)-1H-imidazol-5-yl)-4-biphenylyl)-1H-irnidazol-2-yl)-1-pyrrolidinyl)-2-oxoethyl)carbamate], 9.00 to 12.00.
`CCNCC(=O)N1CCC[C@H]1c1ncc(-c2ccc(-c3ccc(-c4cnc([C@@H]5CCCN5C(=O)[C@@H](NC(=O)OC)C(C)C)[nH]4)cc3)cc2)[nH]1` [LS21, methyl ((1S)-1-(((2S)-2-(5-(4′-(2-((2S)-1-(N-ethylglycyl)-2-pyrrolidinyl)-1H-imidazol-5-yl)-4-biphenylyl)-1H-imidazol-2-yl)-1-pyrrolidinyl)carbonyl)-2-methylpropyl)carbamate]: the negative logarithm of the EC50 (pEC50) was 9.00 to 12.00.
Turning to `COC(=O)N[C@@H](C(=O)N1CCC[C@H]1c1ncc(-c2ccc(-c3ccc(-c4cnc([C@@H]5CCCN5C(=O)C(=O)N(C)C)[nH]4)cc3)cc2)[nH]1)c1ccccc1` [Example 73, methyl ((1R)-2-((2S)-2-(5-(4′-(2-((2S)-1-((dimethylamino)(oxo)acetyl)-2-pyrrolidinyl)-1H-imidazol-5-yl)-4-biphenylyl)-1H-imidazol-2-yl)-1-pyrrolidinyl)-2-oxo-1-phenylethyl)carbamate], the negative logarithm of the EC50 (pEC50) is 9.00 to 12.00.
